# Laboratory results from article PMC11111408, “Concurrent inhibition of oncogenic and wild-type RAS-GTP for cancer therapy” (Nature, 2024).
# “And” between values parts separate entries of the source, which are not always exact repeats. Equal values may be shown once.
# Key:
# [1] = Cell-to-medium concentration ratio of RMC-7977 (LC–MS/MS bioanalysis of cells and supernatant); type: in vitro ADME, human
# Method: Cells were pelleted by centrifugation, and 1 ml of supernatant was reserved and frozen at −80 °C. Cell pellets were washed twice in cold PBS, and pre-weighed tubes containing the cell pellets were weighed prior to snap freezing in a slurry of dry ice and ethanol. […] Cell pellet samples were resuspended in cell medium (diluted as needed), then treated as supernatant. An aliquot of supernatant or resuspended cells (50 µL) was quenched with a 3× volume of acetonitrile containing the internal standard terfenadine (2.5 ng ml^−1). […] The lower limit of quantification was 0.25 ng ml^−1, and the calibration range was 0.25 to 400 ng ml^−1.
# KRAS–RALGDS [2] = molecular target: T1, KRAS–RALGDS (Homo sapiens, UniProt P01116, G12C); experiment: Cellular nano-BRET, full length RALGDS binding to KRAS G12C, G12D, G12V; type: cell-based; conditions: KRAS G12C, in the presence of CYPA, single replicates
# T1 construct: expressed in transfected cells; host or cells: U2OS
# KRAS–RALGDS [3] = molecular target: T2, KRAS–RALGDS (Homo sapiens, UniProt P01116, G12D); experiment: as above; type: cell-based; conditions: KRAS G12D, in the presence of CYPA, single replicates
# T2 construct: expressed in transfected cells; host or cells: U2OS
# [4] = tested on: DUSP6 mRNA in NCI-H441 xenograft tumours; experiment: In vivo pharmacodynamic analysis by DUSP6 qPCR in NCI-H441 CDX tumours; set-up: species or system mouse; conditions: for % inhibition of DUSP6 vs control: single dose, tumor, individual animals
# Method: RNA extraction and analysis of DUSP6 levels by in tumour tissue were performed as previously described.
# KRAS^G12V = KRAS^G12V (Homo sapiens, UniProt P01116+P62937, G12V); experiment: KRAS–RALGDS RID binding inhibition in vitro; type: biochemical; set-up: His6-TEV (N); made in house; host or cells: BL21(DE3) Escherichia coli; TR-FRET of recombinant KRAS and RALGDS RID: scale not given here; conditions: for TR-FRET of recombinant KRAS and RALGDS RID: KRAS G12V, single replicates
# [5] = tested on: CT26 syngeneic tumours engineered to express KRAS^G12C; experiment: Immune cell response in eCT26 KRAS^G12C syngeneic tumours; type: in vivo, mouse; conditions: 24 hours post 4 days of treatment, 25 mg/kg PO QD, individual mice
# Method: Tumor tissue was minced, processed with the Dri Tumor & Tissue Dissociation Reagent from BD Biosciences and homogenized with the gentleMACS™ Dissociator. Tumor cell suspensions were incubated at 4°C for 30 minutes with Mouse BD Fc Block (Clone 2.4G2 from BD Pharmingen), 10 minutes with Blue Dead Cell Stain Kit (Invitrogen) and 30 min in cell staining buffer. […] Cells were analyzed on a 4-laser Cytek Aurora (Cytek Biosciences), and data analysis was done using SpectroFlo (Cytek Biosciences) and FlowJo (FlowJo LLC.).
# KRAS^G12S = KRAS^G12S (Homo sapiens, UniProt P01116+P62937, G12S); experiment: Biochemical RAS–RAF (BRAF RBD) disruption, TR-FRET; set-up: His6-TEV (N); made in house; host or cells: E. coli BL21(DE3)
# Source text: (§1) Time-resolved fluorescence resonance energy transfer (TR-FRET) was used as previously described to assess disruption of the interactions between wild-type RAS or the mutant oncogenic RAS proteins and the RAS-binding domain of BRAF, and to assess the induction of interactions between the RAS proteins and CYPA[12].
# HRAS WT = HRAS WT (Homo sapiens, UniProt P01112+P62937); experiment: Biochemical RAS–RAF (BRAF RBD) disruption, TR-FRET; set-up: His6-TEV (N); made in house; host or cells: E. coli BL21(DE3)
# Source text: as §1
# KRAS^G12A = KRAS^G12A (Homo sapiens, UniProt P01116+P62937, G12A); experiment: Cellular RAS–CYPA binding (tri-complex formation), nano-BRET in U2OS cells; type: cell-based; set-up: expressed in transfected cells; host or cells: U2OS or U2OS PPIA-KO; conditions: (95% CI)
# Source text: (§2) KRAS4B, or other small GTPases, containing the indicated mutations were cloned in pNLF-N or pHTN plasmids for expression with an N-terminal nanoluciferase or HaloTag fusion, respectively. […] The following day, the cells were collected by Trypsin and reseeded in a white tissue culture-treated 96-well plate in OptiMem phenol red-free medium (Gibco) containing 4% FBS and a 1:1,000 dilution of NanoBRET 618 HaloTag ligand (Promega). For endpoint concentration response curves, vivazine nanoluciferase substrate was added to 1× concentration in OptiMem phenol red-free medium with 4% FBS. Varying concentrations of inhibitor were added and incubated for 1 or 4 h before the nano-BRET signal was measured on a Perkin Elmer Envision plate reader. For kinetic assays, endurazine nanoluciferase substrate was used in place of vivazine, and the plate was placed in a Cytation5 multi-mode reader pre-equilibrated to 37 °C and 5% CO2.
# KRAS^Q61H = KRAS^Q61H (Homo sapiens, UniProt P01116+P62937, Q61H); experiment: as above; type: cell-based; set-up: expressed in transfected cells; host or cells: U2OS or U2OS PPIA-KO; conditions: (95% CI)
# Source text: as §2
# Capan-1 cells = experiment: Cellular ERK phosphorylation (pERK); type: cell-based; conditions: Homo sapiens; Capan-1 (KRAS^G12V PDAC); (95% CI)
structure (smiles),measurement,setting,value
CCn1c(-c2cc(N3CCN(C4CC4)CC3)cnc2[C@H](C)OC)c2c3cc(ccc31)-c1csc(n1)C[C@H](NC(=O)[C@H]1[C@@H]3COC[C@@H]31)C(=O)N1CCC[C@H](N1)C(=O)OCC(C)(C)C2 [RMC-7977],LC/MS bioanalysis of cells treated with RMC-7977,"[1]; AsPC-1, RMC-7977 10 nM",161.5 and 241.3 and 143.0
same,LC/MS bioanalysis of cells treated with RMC-7977,"[1]; AsPC-1, RMC-7977 100 nM",76.8 and 68.8 and 89.6
same,LC/MS bioanalysis of cells treated with RMC-7977,"[1]; AsPC-1, RMC-7977 1000 nM",50.6 and 44.9
same,Cellular nano-BRET of RALGDS (full-length) binding to KRAS,KRAS–RALGDS [2]; RMC-7977 4.115 nM,18.1963 and 16.034 and 17.4595 and 15.2439 and 16.9748 and 14.2583
same,Cellular nano-BRET of RALGDS (full-length) binding to KRAS,KRAS–RALGDS [2]; RMC-7977 12.346 nM,13.0313 and 11.9807 and 11.9885 and 11.6119 and 11.6125 and 11.8549
same,Cellular nano-BRET of RALGDS (full-length) binding to KRAS,KRAS–RALGDS [2]; RMC-7977 37.037 nM,11.0793 and 10.028 and 11.2271 and 10.7778 and 11.2352 and 10.211
same,Cellular nano-BRET of RALGDS (full-length) binding to KRAS,KRAS–RALGDS [2]; RMC-7977 111.111 nM,10.2935 and 10.375 and 9.345 and 10.0632 and 10.0122 and 10.2781
same,Cellular nano-BRET of RALGDS (full-length) binding to KRAS,KRAS–RALGDS [2]; RMC-7977 333.333 nM,10.1394 and 10.5924 and 9.785 and 10.0763 and 9.658 and 9.979
same,Cellular nano-BRET of RALGDS (full-length) binding to KRAS,KRAS–RALGDS [2]; RMC-7977 1000.000 nM,10.8628 and 9.92 and 10.139 and 10.0712 and 10.3509 and 9.953
same,Cellular nano-BRET of RALGDS (full-length) binding to KRAS,KRAS–RALGDS [3]; RMC-7977 12.346 nM,21.965 and 22.2278 and 22.7225 and 21.1836 and 19.9465 and 19.3916
same,Cellular nano-BRET of RALGDS (full-length) binding to KRAS,KRAS–RALGDS [3]; RMC-7977 37.037 nM,15.9727 and 15.3384 and 16.4816 and 15.5961 and 16.3731 and 14.4955
same,Cellular nano-BRET of RALGDS (full-length) binding to KRAS,KRAS–RALGDS [3]; RMC-7977 111.111 nM,13.7998 and 12.0846 and 13.3529 and 13.1019 and 13.0482 and 11.2251
same,Cellular nano-BRET of RALGDS (full-length) binding to KRAS,KRAS–RALGDS [3]; RMC-7977 333.333 nM,11.2999 and 11.1999 and 10.8448 and 10.0467 and 10.686 and 10.4797
same,Cellular nano-BRET of RALGDS (full-length) binding to KRAS,KRAS–RALGDS [3]; RMC-7977 1000.000 nM,10.2193 and 10.47 and 10.4459 and 10.0036 and 10.1066 and 10.1313
same,EC50,"[4]; Mus musculus, NCI-H441, po, read-out: EC50, total tumour concentration versus DUSP6 inhibition",130 nM
same,EC90,"[4]; Mus musculus, NCI-H441 CDX, single oral administration, read-out: EC90, tumour concentration versus DUSP6 inhibition",1450 nM
same,RMC-7977 10 mg/kg po dusp6,"[4]; NCI-H441 CDX tumour DUSP6 mRNA, single oral 10 mg/kg, 1 h, individual replicates, 10 mg/kg",34.819 and 101.252 and 98.4831
same,RMC-7977 25 mg/kg po dusp6,"[4]; NCI-H441 CDX tumour DUSP6 mRNA, single oral 25 mg/kg, 1 h, individual replicates, 25 mg/kg",26.2056 and 15.6903 and 16.7583
same,suppression of tumour DUSP6 levels,"[4]; NCI-H441 CDX, single oral dose of 10 mg kg^−1, at 8 h",91%
same,% inhibition of DUSP6 vs control,"[4]; 8h, 1 mg/kg",63.5% and 36.8% and 52.6%
same,% inhibition of DUSP6 vs control,"[4]; 8h, 5 mg/kg",53.7% and 91.7% and 1.5%
same,% inhibition of DUSP6 vs control,"[4]; 8h, 10 mg/kg",95.7% and 96.4% and 96.3% and 93.6937% and 85.7607% and 93.075%
same,% inhibition of DUSP6 vs control,"[4]; 8h, 25 mg/kg",95.995% and 81.4698% and 87.9011%
same,% inhibition of DUSP6 vs control,"[4]; 24h, 1 mg/kg",0% and 16.6%
same,% inhibition of DUSP6 vs control,"[4]; 24h, 5 mg/kg",6.8% and 29.4% and 61.8%
same,% inhibition of DUSP6 vs control,"[4]; 24h, 10 mg/kg",89.7% and 90.2% and 86.9% and 86.5288% and 67.1731% and 84.3639%
same,% inhibition of DUSP6 vs control,"[4]; 24h, 25 mg/kg",94.1768% and 94.6786% and 96.3905%
same,% inhibition of DUSP6 vs control,"[4]; 48h, 1 mg/kg",0% and 32.5%
same,% inhibition of DUSP6 vs control,"[4]; 48h, 5 mg/kg",3.9% and 33.4% and 22.2%
same,% inhibition of DUSP6 vs control,"[4]; 48h, 10 mg/kg",72.3% and 74.6% and 69.6% and 56.232% and 64.817% and 89.3572%
same,% inhibition of DUSP6 vs control,"[4]; 48h, 25 mg/kg",81.914% and 86.388% and 94.0545%
same,% inhibition of DUSP6 vs control,"[4]; 72h, 5 mg/kg",0% and 11.9%
same,% inhibition of DUSP6 vs control,"[4]; 72h, 10 mg/kg",0.2% and 45.2% and 48.1% and 87.4744% and 67.1731%
same,% inhibition of DUSP6 vs control,"[4]; 72h, 25 mg/kg",87.2112% and 72.4915% and 81.7249%
same,TR-FRET of recombinant KRAS and RALGDS RID,KRAS^G12V; RMC-7977 0.005 nM with CYPA,1.0295 and 1.03 and 1.0995 and 1.02
same,TR-FRET of recombinant KRAS and RALGDS RID,KRAS^G12V; RMC-7977 0.046 nM with CYPA,1.033 and 0.9862 and 0.9822 and 1.02
same,TR-FRET of recombinant KRAS and RALGDS RID,KRAS^G12V; RMC-7977 0.412 nM with CYPA,0.9113 and 1.003 and 0.948 and 0.8985
same,TR-FRET of recombinant KRAS and RALGDS RID,KRAS^G12V; RMC-7977 1.235 nM with CYPA,0.868 and 0.861 and 0.9113 and 0.9277
same,TR-FRET of recombinant KRAS and RALGDS RID,KRAS^G12V; RMC-7977 3.704 nM with CYPA,0.6665 and 0.6727 and 0.7087 and 0.775
same,TR-FRET of recombinant KRAS and RALGDS RID,KRAS^G12V; RMC-7977 11.111 nM with CYPA,0.4672 and 0.5503 and 0.4273 and 0.4677
same,TR-FRET of recombinant KRAS and RALGDS RID,KRAS^G12V; RMC-7977 33.333 nM with CYPA,0.2172 and 0.237 and 0.1963 and 0.1593
same,TR-FRET of recombinant KRAS and RALGDS RID,KRAS^G12V; RMC-7977 100.000 nM with CYPA,0.031 and -0.01375 and 0.0395 and 0.0045
same,IC50,"KRAS^G12V; KRAS^G12V, recombinant, with CYPA",8 nM
same,AH1 specific % of CD8+ cells,[5],37.8% and 45.2% and 69.2% and 39.2%
same,CD8+ % of CD45+ cells,[5],36.2% and 31.8% and 38.7% and 46.1%
same,CD45+ % of live cells,[5],77.4% and 74.9% and 84.2% and 83.5%
same,EC50,KRAS^G12S,107 nM
same,EC50,HRAS WT,59.9 nM
same,EC50,KRAS^G12A,4.91 nM
same,EC50,KRAS^Q61H,5.75 nM
same,EC50,Capan-1 cells,0.421 nM
